Test system: MRSA
Assay: Potentiating effect of galloyl quinic acid derivatives for the antibacterial activity of oxacillin (agar plate dilution method, MIC)
Assay type: cell-based, Staphylococcus aureus
Protocol: According to the agar plate dilution method defined by Japan Society of Chemotherapy, MIC (Minimum inhibitory concentration) was determined. CAMHA was prepared by adding 50 mg/l of Ca-ion, 25 mg/l of Mg-ion, and 2% of NaCl to Mueller-Hinton II Agar (MHA), and it was used as a medium for use in the measurement of sensitivity. The bacterial liquid was incubated at 37° C. overnight and diluted to 10^6 CFU/ml with saline.
It was confirmed that the known substances shown below were contained in “Tara” and their MICs were determined as described in example 2 with respect to the effects of the combination use with oxacillin

[1] = ATCC 6538, with 12.5 μg/ml of compound
[2] = ATCC 6538, with 25 μg/ml of compound
[3] = ATCC 6538, with 50 μg/ml of compound
[4] = MRSA 1, with 12.5 μg/ml of compound
[5] = MRSA 1, with 25 μg/ml of compound
[6] = MRSA 1, with 50 μg/ml of compound
[7] = MRSA 2, with 12.5 μg/ml of compound
[8] = MRSA 2, with 25 μg/ml of compound
[9] = MRSA 2, with 50 μg/ml of compound
[10] = MRSA 3, with 12.5 μg/ml of compound
[11] = MRSA 3, with 25 μg/ml of compound
[12] = MRSA 3, with 50 μg/ml of compound
[13] = MRSA 4, with 12.5 μg/ml of compound
[14] = MRSA 4, with 25 μg/ml of compound
[15] = MRSA 4, with 50 μg/ml of compound
[16] = MRSA 5, with 12.5 μg/ml of compound
[17] = MRSA 5, with 25 μg/ml of compound
[18] = MRSA 5, with 50 μg/ml of compound
[19] = MRSA 6, with 12.5 μg/ml of compound
[20] = MRSA 6, with 25 μg/ml of compound
[21] = MRSA 6, with 50 μg/ml of compound
[22] = MRSA 7, with 12.5 μg/ml of compound
[23] = MRSA 7, with 25 μg/ml of compound
[24] = MRSA 7, with 50 μg/ml of compound
[25] = MRSA 8, with 12.5 μg/ml of compound
[26] = MRSA 8, with 25 μg/ml of compound
[27] = MRSA 8, with 50 μg/ml of compound
[28] = MRSA 9, with 12.5 μg/ml of compound
[29] = MRSA 9, with 25 μg/ml of compound
[30] = MRSA 9, with 50 μg/ml of compound
[31] = MRSA 10, with 12.5 μg/ml of compound
[32] = MRSA 10, with 25 μg/ml of compound
[33] = MRSA 10, with 50 μg/ml of compound
[34] = MRSA 12, with 12.5 μg/ml of compound
[35] = MRSA 12, with 25 μg/ml of compound
[36] = MRSA 12, with 50 μg/ml of compound
[37] = MRSA 16, with 12.5 μg/ml of compound
[38] = MRSA 16, with 25 μg/ml of compound
[39] = MRSA 16, with 50 μg/ml of compound
[40] = MRSA 17, with 12.5 μg/ml of compound
[41] = MRSA 17, with 25 μg/ml of compound
[42] = MRSA 17, with 50 μg/ml of compound
[43] = MRSA 18, with 12.5 μg/ml of compound
[44] = MRSA 18, with 25 μg/ml of compound
[45] = MRSA 18, with 50 μg/ml of compound
[46] = MRSA 20, with 12.5 μg/ml of compound
[47] = MRSA 20, with 25 μg/ml of compound
[48] = MRSA 20, with 50 μg/ml of compound
[49] = MRSA 21, with 12.5 μg/ml of compound
[50] = MRSA 21, with 25 μg/ml of compound
[51] = MRSA 21, with 50 μg/ml of compound
[52] = MRSA 22, with 12.5 μg/ml of compound
[53] = MRSA 22, with 25 μg/ml of compound
[54] = MRSA 22, with 50 μg/ml of compound
[55] = MRSA COL, with 12.5 μg/ml of compound
[56] = MRSA COL, with 25 μg/ml of compound
[57] = MRSA COL, with 50 μg/ml of compound
[58] = MSSA 1003, with 12.5 μg/ml of compound
[59] = MSSA 1003, with 25 μg/ml of compound
[60] = MSSA 1003, with 50 μg/ml of compound
[61] = MSSA 1010, with 12.5 μg/ml of compound
[62] = MSSA 1010, with 25 μg/ml of compound
[63] = MSSA 1010, with 50 μg/ml of compound
[64] = MSSA 1032, with 12.5 μg/ml of compound
[65] = MSSA 1032, with 25 μg/ml of compound
[66] = MSSA 1032, with 50 μg/ml of compound
[67] = RN4220, with 12.5 μg/ml of compound
[68] = RN4220, with 25 μg/ml of compound
[69] = RN4220, with 50 μg/ml of compound

## COC(=O)C1(O)CC(O)C(OC(=O)c2cc(O)c(O)c(O)c2)C(OC(=O)c2cc(O)c(O)c(O)c2)C1 (stereo not drawn) [compound 1]
[1]
  Oxacillin MIC: <0.5 µg/mL
[2]
  Oxacillin MIC: <0.063 µg/mL
[3]
  Oxacillin MIC: <0.5 µg/mL
[4]
  Oxacillin MIC: 128 µg/mL
[5]
  Oxacillin MIC: 128 µg/mL
[6]
  Oxacillin MIC: 128 µg/mL
[7]
  Oxacillin MIC: 2 µg/mL
[8]
  Oxacillin MIC: 2 µg/mL
[9]
  Oxacillin MIC: 2 µg/mL
[10]
  Oxacillin MIC: <0.5 µg/mL
[11]
  Oxacillin MIC: 0.5 µg/mL
[12]
  Oxacillin MIC: 1 µg/mL
[13]
  Oxacillin MIC: 128 µg/mL
[14]
  Oxacillin MIC: 128 µg/mL
[15]
  Oxacillin MIC: 32 µg/mL
[16]
  Oxacillin MIC: 128 µg/mL
[17]
  Oxacillin MIC: 32 µg/mL
[18]
  Oxacillin MIC: 64 µg/mL
[19]
  Oxacillin MIC: 2 µg/mL
[20]
  Oxacillin MIC: 2 µg/mL
[21]
  Oxacillin MIC: 4 µg/mL
[22]
  Oxacillin MIC: 32 µg/mL
[23]
  Oxacillin MIC: 16 µg/mL
[24]
  Oxacillin MIC: 16 µg/mL
[25]
  Oxacillin MIC: <0.5 µg/mL
[26]
  Oxacillin MIC: 16 µg/mL
[27]
  Oxacillin MIC: 1 µg/mL
[28]
  Oxacillin MIC: 16 µg/mL
[29]
  Oxacillin MIC: 16 µg/mL
[30]
  Oxacillin MIC: 8 µg/mL
[31]
  Oxacillin MIC: 4 µg/mL
[32]
  Oxacillin MIC: 8 µg/mL
[33]
  Oxacillin MIC: 8 µg/mL
[34]
  Oxacillin MIC: 16 µg/mL
[35]
  Oxacillin MIC: 16 µg/mL
[36]
  Oxacillin MIC: 16 µg/mL
[37]
  Oxacillin MIC: 128 µg/mL
[38]
  Oxacillin MIC: 128 µg/mL
[39]
  Oxacillin MIC: 64 µg/mL
[40]
  Oxacillin MIC: 32 µg/mL
[41]
  Oxacillin MIC: 32 µg/mL
[42]
  Oxacillin MIC: 4 µg/mL
[43]
  Oxacillin MIC: 128 µg/mL
[44]
  Oxacillin MIC: 128 µg/mL
[45]
  Oxacillin MIC: 32 µg/mL
[46]
  Oxacillin MIC: <0.5 µg/mL
[47]
  Oxacillin MIC: 0.25 µg/mL
[48]
  Oxacillin MIC: <0.5 µg/mL
[49]
  Oxacillin MIC: <0.5 µg/mL
[50]
  Oxacillin MIC: 0.25 µg/mL
[51]
  Oxacillin MIC: 1 µg/mL
[52]
  Oxacillin MIC: 1 µg/mL
[53]
  Oxacillin MIC: 0.5 µg/mL
[54]
  Oxacillin MIC: 1 µg/mL
[55]
  Oxacillin MIC: 8 µg/mL
[56]
  Oxacillin MIC: 32 µg/mL
[57]
  Oxacillin MIC: 2 µg/mL
[58]
  Oxacillin MIC: <0.5 µg/mL
[59]
  Oxacillin MIC: 0.25 µg/mL
[60]
  Oxacillin MIC: <0.5 µg/mL
[61]
  Oxacillin MIC: <0.5 µg/mL
[62]
  Oxacillin MIC: 0.5 µg/mL
[63]
  Oxacillin MIC: <0.5 µg/mL
[64]
  Oxacillin MIC: <0.5 µg/mL
[65]
  Oxacillin MIC: 0.25 µg/mL
[66]
  Oxacillin MIC: <0.5 µg/mL
[67]
  Oxacillin MIC: <0.5 µg/mL
[68]
  Oxacillin MIC: 0.125 µg/mL
[69]
  Oxacillin MIC: <0.5 µg/mL

## COC(=O)C1(O)CC(OC(=O)c2cc(O)c(O)c(O)c2)C(OC(=O)c2cc(O)c(O)c(O)c2)C(OC(=O)c2cc(O)c(O)c(O)c2)C1 (stereo not drawn) [compound 2]
[1]
  Oxacillin MIC: <0.5 µg/mL
[2]
  Oxacillin MIC: <0.5 µg/mL
[3]
  Oxacillin MIC: <0.5 µg/mL
[4]
  Oxacillin MIC: >256 µg/mL
[5]
  Oxacillin MIC: >256 µg/mL
[6]
  Oxacillin MIC: >256 µg/mL
[7]
  Oxacillin MIC: 256 µg/mL
[8]
  Oxacillin MIC: 32 µg/mL
[9]
  Oxacillin MIC: 32 µg/mL
[10]
  Oxacillin MIC: 64 µg/mL
[11]
  Oxacillin MIC: 32 µg/mL
[12]
  Oxacillin MIC: 32 µg/mL
[13]
  Oxacillin MIC: 256 µg/mL
[14]
  Oxacillin MIC: 256 µg/mL
[15]
  Oxacillin MIC: 256 µg/mL
[16]
  Oxacillin MIC: >256 µg/mL
[17]
  Oxacillin MIC: 256 µg/mL
[18]
  Oxacillin MIC: 256 µg/mL
[19]
  Oxacillin MIC: 128 µg/mL
[20]
  Oxacillin MIC: 32 µg/mL
[21]
  Oxacillin MIC: 64 µg/mL
[22]
  Oxacillin MIC: 256 µg/mL
[23]
  Oxacillin MIC: 128 µg/mL
[24]
  Oxacillin MIC: 64 µg/mL
[25]
  Oxacillin MIC: 64 µg/mL
[26]
  Oxacillin MIC: 64 µg/mL
[27]
  Oxacillin MIC: 64 µg/mL
[28]
  Oxacillin MIC: >256 µg/mL
[29]
  Oxacillin MIC: 256 µg/mL
[30]
  Oxacillin MIC: 128 µg/mL
[31]
  Oxacillin MIC: 64 µg/mL
[32]
  Oxacillin MIC: 64 µg/mL
[33]
  Oxacillin MIC: 64 µg/mL
[34]
  Oxacillin MIC: 256 µg/mL
[35]
  Oxacillin MIC: 128 µg/mL
[36]
  Oxacillin MIC: 256 µg/mL
[37]
  Oxacillin MIC: >255 µg/mL
[38]
  Oxacillin MIC: 256 µg/mL
[39]
  Oxacillin MIC: 256 µg/mL
[40]
  Oxacillin MIC: 128 µg/mL
[41]
  Oxacillin MIC: 256 µg/mL
[42]
  Oxacillin MIC: 256 µg/mL
[43]
  Oxacillin MIC: 256 µg/mL
[44]
  Oxacillin MIC: 128 µg/mL
[45]
  Oxacillin MIC: 128 µg/mL
[46]
  Oxacillin MIC: 8 µg/mL
[47]
  Oxacillin MIC: 2 µg/mL
[48]
  Oxacillin MIC: 4 µg/mL
[49]
  Oxacillin MIC: 32 µg/mL
[50]
  Oxacillin MIC: 8 µg/mL
[51]
  Oxacillin MIC: 16 µg/mL
[52]
  Oxacillin MIC: 32 µg/mL
[53]
  Oxacillin MIC: 16 µg/mL
[54]
  Oxacillin MIC: 32 µg/mL
[55]
  Oxacillin MIC: 256 µg/mL
[56]
  Oxacillin MIC: 128 µg/mL
[57]
  Oxacillin MIC: 128 µg/mL
[58]
  Oxacillin MIC: <0.5 µg/mL
[59]
  Oxacillin MIC: <0.5 µg/mL
[60]
  Oxacillin MIC: <0.5 µg/mL
[61]
  Oxacillin MIC: <0.5 µg/mL
[62]
  Oxacillin MIC: <0.5 µg/mL
[63]
  Oxacillin MIC: <0.5 µg/mL
[64]
  Oxacillin MIC: <0.5 µg/mL
[65]
  Oxacillin MIC: <0.5 µg/mL
[66]
  Oxacillin MIC: <0.5 µg/mL
[67]
  Oxacillin MIC: <0.5 µg/mL
[68]
  Oxacillin MIC: <0.5 µg/mL
[69]
  Oxacillin MIC: <0.5 µg/mL

— patent publication US20060235076A1, “Medicinal composition for treating infection with drug-resistant staphylococcus aureus” (priority 2003, published 2006)
